Measurements as given in patent EP0745595A1, “3-(3-Aryloxyphenyl)-1-(substituted methyl)-s-triazine-2,4,6-oxo or thiotrione herbicidal agents” (American Cyanamid Company, priority 1995, dated 1996).

Key:
Type in all cases: in vivo
[1] = system: ECHINOCHLOA ORYZOIDES (ARD.)FRITSCH; experiment: Preemergence weed control under flooded paddy conditions, ECHORC (Watergrass (Calif.)); conditions: for Herbicidal effect rating, ECHORC: preemergence, 3-4 weeks after treatment; for ECHORC: pre-weed; for ECHORC herbicidal rating: preemergence weeds, rated three to four weeks after treatment
Summary of the method: (§1)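 Flooded paddy preemergence test: seeds/propagating organs in top 0.5 cm silt loam, water held 1.5-3 cm above soil. Dosing by pipette into flood water, aqueous/acetone 50/50 v/v, ~0.5, 0.25, 0.125, 0.063 kg/ha a.i. Greenhouse; read at 3-4 wk, 0-9 visual scale.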

CYPERUS IRIA = experiment: Preemergence weed control under flooded paddy conditions, CYPIR (Rice Flatsedge); conditions: for CYPIR herbicidal rating: preemergence weeds, rated three to four weeks after treatment
Summary of the method: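 Seeds or propagating organs of rice flatsedge were planted in the top 0.5 cm of silt loam soil in 32 oz. plastic containers, 10.5 cm across and without drainage holes. Water was kept 1.5 to 3 cm above the soil throughout. Treated containers were kept on greenhouse benches, and herbicidal effect was visually rated on a 0-9 scale against a control.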

ZEA MAYS L. = experiment: Preemergence herbicidal evaluation, ZEAMX (Corn, Field); conditions: rated four to five weeks after treatment
Summary of the method: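 Corn (Zea mays) seeds were mixed with potting soil and planted on about one inch of soil in pint cups, then treated preemergence. Cups were kept on greenhouse benches, watered and maintained conventionally, and after four to five weeks were visually rated on a 0-9 scale versus an untreated control.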

[…], PRESL. = Preemergence weed control under flooded paddy conditions, MOOVA (Monochoria); conditions: for Herbicidal effect rating, MOOVA: preemergence, 3-4 weeks after treatment; for MOOVA: pre-weed; for MOOVA herbicidal rating: preemergence weeds, rated three to four weeks after treatment
Summary of the method: as §1

[2] = system: CYPERUS SEROTINUS, ROTTB.; experiment: Preemergence weed control under flooded paddy conditions, CYPSE (Flatsedge); conditions: 0.500 kg/ha, preemergence, 3-4 weeks after treatment
Summary of the method: as §1

SAGITTARIA PYGMAEA, L. = experiment: Preemergence weed control under flooded paddy conditions, SAGPY (Arrowhead (Pygmaea)); conditions: 0.500 kg/ha, preemergence, 3-4 weeks after treatment
Summary of the method: as §1

[3] = system: SETARIA VIRIDIS, (L) BEAU; experiment: Postemergence herbicidal evaluation, SETVI (Foxtail, Green); design: key to SETVI rating / Herbicidal effect rating, SETVI / SETVI: 0-9 visual rating scale vs untreated control; conditions: for SETVI, herbicide rating (0-9): rated four to five weeks after treatment, averaged
Summary of the method: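 Under usual greenhouse care after spraying, plants were examined four to five weeks on and given a 0–9 score relative to control. Application rate was about 0.125–0.500 kg/ha on ~two-week-old seedlings.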

[4] = system: GLYCINE MAX(L) MERR. CV. WILLIAMS; experiment: Preemergence herbicidal evaluation, GLXMAW (Soybean, Williams); conditions: rated four to five weeks after treatment
Summary of the method: (§2)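 Rated 0-9 by visual comparison with control (stand, vigor, malformation, size, chlorosis, overall appearance) four to five weeks after preemergence soil spray. Dose equivalent to about 0.125 to 0.50 kg per hectare, applied in aqueous acetone to freshly seeded cups kept in greenhouse.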

CASSIA OBTUSIFOLIA, L. = experiment: Preemergence herbicidal evaluation, CASOB (Sicklepod); conditions: for CASOB herbicidal rating: rated four to five weeks after treatment; for CASOB rating: four to five weeks after treatment
Summary of the method: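 Seeds of various monocot and dicot plants, including sicklepod, were each mixed with potting soil and sown on roughly one inch of soil in separate pint cups for preemergence testing. Treated cups were kept on greenhouse benches, watered and maintained conventionally. Four to five weeks after treatment, each cup was visually rated on a 0-9 scale against a control.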

GALIUM APARINE = experiment: Preemergence herbicidal evaluation, GALAP (Galium); conditions: for GALAP herbicidal rating: rated four to five weeks after treatment; for GALAP rating: four to five weeks after treatment
Summary of the method: as §2

[5] = system: GLYCINE MAX(L) MERR. CV. WILLIAMS; experiment: Postemergence herbicidal evaluation, GLXMAW (Soybean, Williams); design: key to GLXMAW rating / Herbicidal effect rating, GLXMAW / GLXMAW: 0-9 visual rating scale vs untreated control
Summary of the method: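 Soybean seedlings (Williams) were raised in jiffy flats for roughly two weeks, then sprayed postemergence through a nozzle at 40 psi with test compound dispersed in 50/50 acetone/water containing 0.5% TWEEN®20. Treated plants were kept on greenhouse benches under normal care and visually rated on a 0-9 scale four to five weeks later.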

[6] = system: ORYZA SATIVA, L. TEBONNET; experiment: Postemergence herbicidal evaluation, ORYSAT (Rice, Tebonnet); design: key: 0-9 visual rating scale vs untreated control
Summary of the method: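 Rice (Tebonnet) seedlings raised in jiffy flats for roughly two weeks were sprayed postemergence at 40 psi with compound dispersed in 50/50 acetone/water containing 0.5% TWEEN®20. The plants were then kept on greenhouse benches under standard care and visually scored on a 0-9 scale against a control four to five weeks after treatment.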

COC(=O)Cn1c(=O)n(C)c(=O)n(-c2cc(Oc3ccc(SC)cc3Cl)ccc2[N+](=O)[O-])c1=O [Compound 34, Methyl 3-{5-[2-chloro-4-(methylthio)-phenoxy]-2-nitrophenyl}tetrahydro-5-methyl-2,4,6-trioxo-s-triazine-1(2H)-acetate]
Herbicidal effect rating, ECHORC ([1]; 0.500 kg/ha): 0.0 | Herbicidal effect rating, CYPIR (CYPERUS IRIA; 0.500 kg/ha, preemergence, 3-4 weeks after treatment): 0.0 | ZEAMX herbicidal rating (ZEA MAYS L.; Rate 0.125 kg/ha): 0.0 | ZEAMX herbicidal rating (ZEA MAYS L.; Rate 0.250 kg/ha): 0.0 | ZEAMX herbicidal rating (ZEA MAYS L.; Rate 0.500 kg/ha): 0.0 | Herbicidal effect rating, MOOVA ([…], PRESL.; 0.500 kg/ha): 0.0 | Herbicidal effect rating, CYPSE [2]: 0.0 | Herbicidal effect rating, SAGPY (SAGITTARIA PYGMAEA, L.): 0.0 | SETVI rating ([3]; Rate 0.125 kg/ha): 0.0 | SETVI rating ([3]; Rate 0.250 kg/ha): 0.0 | SETVI rating ([3]; Rate 0.500 kg/ha): 0.0 | GLXMAW herbicidal rating ([4]; Rate 0.125 kg/ha): 0.0 | GLXMAW herbicidal rating ([4]; Rate 0.250 kg/ha): 0.0 | GLXMAW herbicidal rating ([4]; Rate 0.500 kg/ha): 0.0 | CASOB herbicidal rating (CASSIA OBTUSIFOLIA, L.; Rate 0.125 kg/ha): 0.0 | CASOB herbicidal rating (CASSIA OBTUSIFOLIA, L.; Rate 0.250 kg/ha): 0.0 | CASOB herbicidal rating (CASSIA OBTUSIFOLIA, L.; Rate 0.500 kg/ha): 0.0

COC(=O)Cn1c(=O)n(C)c(=O)n(-c2cc(Oc3c(F)cc(C(F)(F)F)cc3Cl)ccc2[N+](=O)[O-])c1=O [Compound 16, Methyl 3-{5-[(2-chloro-α,α,α,6-tetrafluoro-p-tolyl)oxy]-2-nitrophenyl}tetrahydro-5-methyl-2,4,6-trioxo-s-triazine-1(2H)-acetate]
Herbicidal effect rating, ECHORC ([1]; 0.063 kg/ha): 9.0 | Herbicidal effect rating, ECHORC ([1]; 0.125 kg/ha): 9.0 | Herbicidal effect rating, ECHORC ([1]; 0.250 kg/ha): 9.0 | Herbicidal effect rating, ECHORC ([1]; 0.500 kg/ha): 9.0 | ECHORC ([1]; Rate 0.031 kg/ha): 9.0 | ECHORC ([1]; Rate 0.063 kg/ha): 9.0 | ECHORC ([1]; Rate 0.125 kg/ha): 9.0 | ECHORC ([1]; Rate 0.250 kg/ha): 9.0 | Herbicidal effect rating, MOOVA ([…], PRESL.; 0.063 kg/ha): 9.0 | Herbicidal effect rating, MOOVA ([…], PRESL.; 0.125 kg/ha): 9.0 | Herbicidal effect rating, MOOVA ([…], PRESL.; 0.250 kg/ha): 9.0 | Herbicidal effect rating, MOOVA ([…], PRESL.; 0.500 kg/ha): 9.0 | MOOVA ([…], PRESL.; Rate 0.031 kg/ha): 9.0 | MOOVA ([…], PRESL.; Rate 0.063 kg/ha): 9.0 | MOOVA ([…], PRESL.; Rate 0.125 kg/ha): 9.0 | MOOVA ([…], PRESL.; Rate 0.250 kg/ha): 9.0 | GALAP (GALIUM APARINE; Rate 0.031 kg/ha): 9.0 | GALAP (GALIUM APARINE; Rate 0.063 kg/ha): 9.0 | GALAP (GALIUM APARINE; Rate 0.125 kg/ha): 9.0 | GALAP herbicidal rating (GALIUM APARINE; Rate 0.125 kg/ha): 9.0 | GALAP (GALIUM APARINE; Rate 0.250 kg/ha): 9.0 | GALAP herbicidal rating (GALIUM APARINE; Rate 0.250 kg/ha): 9.0 | GALAP herbicidal rating (GALIUM APARINE; Rate 0.500 kg/ha): 9.0 | SETVI ([3]; Rate 0.008 kg/ha): 0.0 | SETVI ([3]; Rate 0.016 kg/ha): 0.0 | SETVI ([3]; Rate 0.031 kg/ha): 0.0 | SETVI ([3]; Rate 0.063 kg/ha): 0.8 | SETVI ([3]; Rate 0.125 kg/ha): 1.3 | GLXMAW ([5]; Rate 0.008 kg/ha): 3.3 | GLXMAW ([5]; Rate 0.016 kg/ha): 3.8 | GLXMAW ([5]; Rate 0.031 kg/ha): 4.6 | GLXMAW ([5]; Rate 0.063 kg/ha): 5.1 | GLXMAW ([5]; Rate 0.125 kg/ha): 5.6 | ORYSAT ([6]; Rate 0.008 kg/ha): 4.0 | ORYSAT ([6]; Rate 0.016 kg/ha): 6.0 | ORYSAT ([6]; Rate 0.031 kg/ha): 5.3 | ORYSAT ([6]; Rate 0.063 kg/ha): 5.3 | ORYSAT ([6]; Rate 0.125 kg/ha): 5.8

COC(=O)Cn1c(=O)n(C)c(=O)n(-c2cc(Oc3c(F)cc(C(F)(F)F)cc3Cl)ccc2Br)c1=O [Compound 2, Methyl 3-{2-bromo-5-[(2-chloro-α,α,α,6-tetrafluoro-p-tolyl)oxy]phenyl}tetrahydro-5-methyl-2,4,6-trioxo-s-triazine-1(2H)-acetate]
ECHORC herbicidal rating ([1]; Rate 0.063 kg/ha): 9.0 | ECHORC herbicidal rating ([1]; Rate 0.125 kg/ha): 9.0 | ECHORC herbicidal rating ([1]; Rate 0.250 kg/ha): 9.0 | ECHORC herbicidal rating ([1]; Rate 0.500 kg/ha): 9.0 | CYPIR herbicidal rating (CYPERUS IRIA; Rate 0.063 kg/ha): 9.0 | CYPIR herbicidal rating (CYPERUS IRIA; Rate 0.125 kg/ha): 9.0 | CYPIR herbicidal rating (CYPERUS IRIA; Rate 0.250 kg/ha): 9.0 | CYPIR herbicidal rating (CYPERUS IRIA; Rate 0.500 kg/ha): 9.0 | MOOVA herbicidal rating ([…], PRESL.; Rate 0.063 kg/ha): 9.0 | MOOVA herbicidal rating ([…], PRESL.; Rate 0.125 kg/ha): 9.0 | MOOVA herbicidal rating ([…], PRESL.; Rate 0.250 kg/ha): 9.0 | MOOVA herbicidal rating ([…], PRESL.; Rate 0.500 kg/ha): 9.0 | GALAP rating (GALIUM APARINE; Rate 0.125 kg/ha): 9.0 | GALAP rating (GALIUM APARINE; Rate 0.250 kg/ha): 9.0 | GALAP rating (GALIUM APARINE; Rate 0.500 kg/ha): 9.0 | Herbicidal effect rating, SETVI ([3]; 0.063 kg/ha): 7.5 | Herbicidal effect rating, SETVI ([3]; 0.125 kg/ha): 9.0 | Herbicidal effect rating, SETVI ([3]; 0.250 kg/ha): 9.0 | Herbicidal effect rating, SETVI ([3]; 0.500 kg/ha): 9.0 | SETVI, herbicide rating (0-9) ([3]; Rate 0.125 kg/ha): 9.0 | SETVI, herbicide rating (0-9) ([3]; Rate 0.250 kg/ha): 9.0 | SETVI, herbicide rating (0-9) ([3]; Rate 0.500 kg/ha): 9.0 | Herbicidal effect rating, GLXMAW ([5]; 0.063 kg/ha): 6.9 | Herbicidal effect rating, GLXMAW ([5]; 0.125 kg/ha): 7.2 | Herbicidal effect rating, GLXMAW ([5]; 0.250 kg/ha): 8.0 | Herbicidal effect rating, GLXMAW ([5]; 0.500 kg/ha): 8.3 | Herbicidal effect rating, ORYSAT ([6]; 0.063 kg/ha): 6.3 | Herbicidal effect rating, ORYSAT ([6]; 0.125 kg/ha): 6.3 | Herbicidal effect rating, ORYSAT ([6]; 0.250 kg/ha): 7.0 | Herbicidal effect rating, ORYSAT ([6]; 0.500 kg/ha): 7.5 | CASOB rating (CASSIA OBTUSIFOLIA, L.; Rate 0.125 kg/ha): 9.0 | CASOB rating (CASSIA OBTUSIFOLIA, L.; Rate 0.250 kg/ha): 9.0 | CASOB rating (CASSIA OBTUSIFOLIA, L.; Rate 0.500 kg/ha): 9.0
